# Experimental data reported in PubChem BioAssay (NCI).
# Several values for one entry are separate records, joined by “and”; a condition that tells them apart may be missing. Equal entries are not always repeated.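 1) Cells in 96-well plates. 2) Compound, 48 h, 5 concentrations. 3) Linear interpolation between surrounding doses. 4) Unreached endpoint = highest concentration. GI50 is the concentration that inhibits growth by half. Definition used: TGI = concentration required for complete inhibition of growth.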
# How the values were obtained:
# Assay in all cases: NCI anticancer screen, dose series, 48 h
# OVCAR-5 ovarian = system: OVCAR-5 ovarian
# ACHN renal = system: ACHN renal
# HL-60(TB) leukemia = system: HL-60(TB) leukemia
# SF-539 CNS = system: SF-539 CNS
# RXF 393 renal = system: RXF 393 renal
# UACC-257 melanoma = system: UACC-257 melanoma
# SK-MEL-5 melanoma = system: SK-MEL-5 melanoma
# DU-145 prostate = system: DU-145 prostate
# MCF7 breast = system: MCF7 breast
# MOLT-4 leukemia = system: MOLT-4 leukemia
Structure (SMILES),TGI (OVCAR-5 ovarian) [µM],TGI (ACHN renal) [µM],TGI (HL-60(TB) leukemia) [µM],TGI (SF-539 CNS),TGI (RXF 393 renal) [µM],TGI (UACC-257 melanoma) [µM],TGI (SK-MEL-5 melanoma) [µM],TGI (DU-145 prostate) [µM],TGI (MCF7 breast) [µM],TGI (MOLT-4 leukemia),GI50 (OVCAR-5 ovarian) [µM],GI50 (DU-145 prostate) [µM],GI50 (ACHN renal) [µM],GI50 (MCF7 breast) [µM],GI50 (RXF 393 renal) [µM],GI50 (UACC-257 melanoma) [µM],GI50 (SK-MEL-5 melanoma) [µM],GI50 (HL-60(TB) leukemia) [µM],GI50 (SF-539 CNS) [µM],GI50 (MOLT-4 leukemia) [µM]
O=C1c2ccoc2C(=O)c2oc(=O)ccc21,33.9,8.43,6.8,8.31 µM,15.1,20.8,3.15,–,–,–,–,–,–,–,–,–,–,–,–,–
CN1CC[C@]23c4c5ccc(O)c4OC2c2[nH]ncc2C[C@H]3[C@H]1C5 (stereo partly specified),> 100,> 100,> 100,–,> 100,> 100,> 100,> 100,> 100,> 100 µM,–,–,–,–,–,–,–,–,–,–
COc1ccc2nc(-c3ccc(O)cc3)ccc2c1,> 100,> 100,> 100,> 100 µM,> 100,> 100,> 100,–,–,> 100 µM,–,–,–,–,–,–,–,–,–,–
CC(C)(C)c1cc(C(OCCl)(C(F)(F)F)C(F)(F)F)c2c(c1)C(C(F)(F)F)(C(F)(F)F)OC21c2ccccc2C(=O)c2ccccc21,> 100,> 100,–,> 100 µM,> 100,> 100,> 100,–,–,> 100 µM,–,–,–,–,–,–,–,–,–,–
COc1ncc2cc1NS(=O)(=O)c1cccc(c1)C(=O)NCC1=CC=C(S1)c1ncnc3c1SC2=C3C,4.02,8.33,–,–,0.695,2.99,0.151,3.4,1.62,–,0.169,0.42,0.592,0.104,0.0721,0.371,0.0369,–,–,–
C1=C(c2ccccc2)C(OC2Oc3ccccc3C=C2c2ccccc2)Oc2ccccc21 (stereo unspecified),> 100,> 100,> 100,–,> 100,> 100,> 100,–,–,> 100 µM,–,–,–,–,–,–,–,–,–,–
O=C(O)C1=C(C(=O)O)Oc2ccccc2O1,> 100,> 100,> 100,> 100 µM,> 100,> 100,–,–,–,> 100 µM,–,–,–,–,–,–,–,–,–,–
COc1cccc2c1[C@H]1OC(=O)NC1CCCCC2 (stereo partly specified),> 100,> 100,> 100,> 100 µM,> 100,> 100,> 100,–,–,> 100 µM,–,–,–,–,–,–,–,–,–,–
O=C(/C=C/c1cccs1)c1ccc([N+](=O)[O-])cc1,–,> 100,> 100,> 100 µM,–,> 100,> 100,> 100,> 100,> 100 µM,–,–,–,–,–,–,–,–,–,–
Nc1ncnc2c1ncn2CCOC(c1ccccc1)P(=O)(O)O (stereo unspecified),> 100,> 100,> 100,> 100 µM,> 100,> 100,> 100,–,–,> 100 µM,–,–,–,–,–,–,–,–,–,–
O=C(CCC(=O)C1Cc2ccccc2C1=O)Nc1cccc(C(F)(F)F)c1 (stereo unspecified),> 100,> 100,> 100,> 100 µM,> 100,> 100,> 100,–,–,> 100 µM,–,–,–,–,–,–,–,–,–,–
O=c1[nH]c(=O)n(C2CC(O)C(O)C(CO)O2)cc1F (stereo unspecified),> 100,> 100,> 100,> 100 µM,> 100,> 100,–,–,–,> 100 µM,–,–,–,–,–,–,–,–,–,–
CC(=O)c1c(O)c2c([nH]c1=O)CCCC2,–,> 100,> 100,–,67.6,–,–,–,–,> 100 µM,–,–,–,–,–,–,–,–,–,–
O=S(=O)(Cc1ccccc1)SCc1ccccc1,> 100,> 100,21.5,37.8 µM,65.2,76,48.5,–,–,14.3 µM,–,–,–,–,–,–,–,–,–,–
Nc1nc(-c2ccccc2)cc(-c2cc(Cl)ccc2O)n1,> 100,72.3,> 100,> 100 µM,> 100,> 100,–,–,–,> 100 µM,–,–,–,–,–,–,–,–,–,–
CCOC(=O)COc1cccc2occc(=O)c12,> 100,> 100,> 100,> 100 µM,–,> 100,> 100,–,–,> 100 µM,–,–,–,–,–,–,–,–,–,–
Nc1c(-c2nc3ccccc3s2)[n+]([O-])c2ccccc2[n+]1[O-],> 100,78,93.5,78.8 µM,–,> 100,40.4,–,–,> 100 µM,–,–,–,–,–,–,–,–,–,–
O=C(Nc1cccc(-n2cc(-c3ccncc3)c(-c3ccc(O)c(Cl)c3)n2)c1)Nc1ccc(Cl)c(Cl)c1,55.9,7.81,7.02,4.87 µM,–,5.13,2.99,12.1,5.23,4.52 µM,3.26,2.39,2.02,1.88,–,2.02,1.56,2.71,1.57,1.43
O=C(O)Cn1ccc(=O)c2c([N+](=O)[O-])cccc21,> 100,> 100,> 100,> 100 µM,–,> 100,> 100,> 100,> 100,> 100 µM,–,–,–,–,–,–,–,–,–,–
CC1CCC2c3c([nH]c4ccccc34)C3C(=O)N(c4ccccc4)C(=O)C3C2C1 (stereo unspecified),–,224,> 250,27.6 µM and > 250 µM,33.7,> 250,–,–,–,95.5 µM and 99.1 µM,–,–,47.9,–,–,–,–,–,34,44.7
CCCCOCCOCCOC1=C(Cl)C(=O)c2c(O)ccc(O)c2C1=O,5.33,3.11,–,2.84 µM,2.05,2.6,1.53,3.16,–,0.1 µM,–,–,–,–,–,–,–,–,–,–
C1CCN2CC3CONC3C2C1 (stereo unspecified),> 100,> 100,> 100,> 100 µM,> 100,> 100,> 100,–,–,> 100 µM,–,–,–,–,–,–,–,–,–,–
NC(=O)C(=O)Cc1nc2ccccc2s1,> 100,> 100,> 100,> 100 µM,> 100,> 100,–,–,–,> 100 µM,–,–,–,–,–,–,–,–,–,–
CC(=O)c1sc2c(c1O)c(=O)n(-c1ccccc1)c(=S)n2-c1ccccc1,> 100,–,> 100,–,> 100,> 100,> 100,> 100,> 100,> 100 µM,–,–,–,–,–,–,–,–,–,–
Cc1cn2c(/C=C3/C(=O)Nc4ccc(C(=O)O)cc43)c(C)nc2s1,> 100,> 100,> 100,> 100 µM,–,> 100,> 100,> 100,> 100,> 100 µM,> 100,> 100,> 100,> 100,–,> 100,> 100,> 100,> 100,> 100
